Test results reported in patent US4550179A, “N-(1-Allyl-2-pyrrolidinyl-methyl) 2-methoxy-4-amino-5-methylsulfamoyl benzamide” (Societe d'Etudes Scientifiques et Industrielles de l'Ile-de …, priority 1980, dated 1985).

Assays:
[1] = tested on: serotonin; assay: hypertensive response to serotonin, anaesthetised dog treated with chlorisondamine; type: in vivo
Text: The effects of the benzamide on the cardiovascular system were studied in a dog anaesthetised with chloralose, with the following results:
% inhibition of hypertension after […]

[2] = tested on: cerebral arteries; assay: cerebral haemodynamics of migraine patients (pulsatility of cerebral arteries); type: in vivo
Experimental: The first clinical pharmacological investigation consisted of exploring the cerebral haemodynamics of migraine patients by a non-invasive method, through recording the pulsatility of the cerebral arteries. […] Graphs were thus plotted after the benzamide according to the invention had been absorbed by migraine patients.
This is maintained under treatment with repeated doses (150 mg/day) given orally for 3 weeks.

[3] = tested on: isolated uterus; assay: serotonin-induced contraction of isolated uterus; settings: isolated uterus of a rat, contraction produced by serotonin
Experimental: inhibited contraction of the isolated uterus of a rat, produced by serotonin. The contraction inhibiting dose 50 is of the order of 0.2 mg/l.

[4] = tested on: histamine; assay: interaction with histamine, isolated ileum of guinea pig
Text: (§1) Finally, researchers looked for interaction between the benzamide according to the invention and histamine, in the arterial pressure of an anaesthetised dog and the isolated ileum of a guinea pig.

[5] = tested on: serotonin; assay: gastric ulcer producing effect of serotonin in the rat; type: in vivo; settings: sc, subcutaneously, read-out: effective dose 50 (protection against gastric ulcer producing effect of serotonin)
[6] = tested on: rat; assay: stereotypic movements of the rat caused by dopaminergic agonists (apomorphine or amphetamine); type: in vivo
[7] = tested on: adrenalin; assay: hypertensive response to adrenalin, anaesthetised dog; type: in vivo; settings: for % reduction relative to control hypertension (R): adrenalin
Text: (§2) The effects of the benzamide on the cardiovascular system were studied in a dog anaesthetised with chloralose, with the following results: […]

[8] = tested on: mice; assay: duration of barbituric (pentobarbital) hypnosis; type: in vivo, mouse
Experimental: Adminis- Dose Time of hypnosis, mice treated
Product tration mg/kg Time of hypnosis, control mice
N.B. The barbiturate used is pentobarbital in a dose of 60 mg/kg given

[9] = tested on: hypotensive response to acetylcholine or to excitation of the vagus nerve; assay: hypotensive response to acetylcholine or excitation of the vagus nerve, anaesthetised dog; type: in vivo
Text: as §2

[10] = tested on: migraine; assay: comparative study with Pizotifene in migraine; type: in vivo; settings: 17 migraine patients, 150 mg per day orally
Experimental: (2) A comparative study with Pizotifene, an anti-histamine and antiserotonin compound which is also used in the basic treatment for migraine.
The study covered 17 patients suffering true attacks of migraine of regular frequency, which thus enabled the effectiveness of the treatment to be assessed from the number and intensity of attacks during a period of one month.
The benzamide according to the invention was applied orally in a dose of 150 mg per day, in three times. The Pizotifene was also administered orally, with the progressive dosage recommended for the product (0.73 mg×1 for 3 days-0.73 mg×2 for 3 days-0.73 mg×3 for 24 days).
The patients were distributed at random between the treatments.

[11] = anticonvulsive action (electric shock, pentetrazol, nicotine, auditory stimulus); type: in vivo; settings: nicotine or auditory stimulus
[12] = tested on: isolated ileum; assay: anticholinergic action in vitro on isolated ileum; settings: isolated ileum of guinea pig
[13] = tested on: nicotine; assay: hypertensive response to nicotine (orthosympathetic component), anaesthetised dog; type: in vivo; settings: for % reduction of orthosympathetic component (R): nicotine
Text: as §2

[14] = tested on: carotid arteries; assay: hypertensive response to blocking of carotid arteries, anaesthetised dog; type: in vivo; settings: for % reduction relative to control hypertension (R): blocking of carotid arteries for 30 seconds
Text: as §2

[15] = acute toxicity (lethal dose 50); settings: in vivo, male mouse
[16] = tested on: mouse; assay: spontaneous motility of mouse, WINTER & FLATAKER method; type: in vivo
Text: The researchers were looking for the effects of the benzamide on the central nervous system and particularly for any neuroleptic action.
(§3) Spontaneous motility of mouse:
(§4) inhibiting effect observed at
(§5) maximum dose administered
(§6) Adminis- WINTER & Activograph

[17] = tested on: mouse; assay: analgesic action, pain caused by mechanical, chemical or heat stimulus; type: in vivo; settings: single dose
Text: The analgesic action of the benzamide, in a single dose, is weak in respect of the pain caused in a mouse by a mechanical, chemical or heat stimulus.

[18] = tested on: migraine; assay: comparative crossed double blind study versus oxetorone in migraine; type: in vivo; settings: 63 migraine patients, 150 mg per day vs oxetorone 120 mg, 30 days
Text: (1) A comparative study, by a crossed double blind method, the reference product being oxetorone, which is medically known, applied to migraine. The study covered 63 migraine patients, the two treatments being applied for 30 days with an adequate interruption between sequences.

[19] = tested on: mouse; assay: spontaneous motility of mouse, Activograph method; type: in vivo; settings: read-out: inhibiting effect on spontaneous motility at maximum dose administered
Text: as §3, §4, §5, §6

[20] = tested on: histamine; assay: interaction with histamine, arterial pressure of anaesthetised dog; type: in vivo
Text: as §1

[21] = BATCH 1, 1 mg/kg I.V., serotonin 37.5 μg/kg I.V.
[22] = BATCH 1, 5 mg/kg I.V., serotonin 25 μg/kg I.V.
[23] = BATCH 2, 1 mg/kg I.V., serotonin 25 μg/kg I.V.
[24] = BATCH 2, 5 mg/kg I.V., serotonin 25 μg/kg I.V.

SMILES: C=CCN1CCCC1CNC(=O)c1cc(S(=O)(=O)NC)c(N)cc1OC (stereo not drawn) [Benzamide according to the invention, N-(1-allyl-2-pyrrolidinyl-methyl)2-methoxy-4-amino-5-methylsulfamoyl benzamide]
- % inhibition of hypertension after 3 mn [1, 21]: 22%
- % inhibition of hypertension after 30 mn [1, 21]: 8%
- % inhibition of hypertension after 3 mn [1, 22]: 62%
- % inhibition of hypertension after 30 mn [1, 22]: 63%
- % inhibition of hypertension after 1 h [1, 22]: 51%
- % inhibition of hypertension after 1 h 30 [1, 22]: 51%
- % inhibition of hypertension after 2 h [1, 22]: 40%
- % inhibition of hypertension after 3 mn [1, 23]: 36%
- % inhibition of hypertension after 30 mn [1, 23]: 11%
- % inhibition of hypertension after 1 h [1, 23]: 0%
- % inhibition of hypertension after 3 mn [1, 24]: 78%
- % inhibition of hypertension after 30 mn [1, 24]: 65%
- % inhibition of hypertension after 1 h [1, 24]: 48%
- % inhibition of hypertension after 1 h 30 [1, 24]: 43%
- % inhibition of hypertension after 2 h [1, 24]: 33%
- % inhibition of hypertension after 3 h ([1]; BATCH 2, 5 mg/kg I.V., serotonin 25 μg/kg I.V., 3 h): 33%
- hypertensive response to serotonin ([1]; anaesthetised dog, chlorisondamine): reduces the hypertensive response to serotonin
- maintenance of graph normalisation ([2]; repeated doses 150 mg/day orally for 3 weeks): maintained
- graph of cerebral artery pulsatility ([2]; single 100 mg intramuscular injection): the graph moves towards normalisation in 2 hours
- contraction inhibiting dose 50 [3]: ~0.2 mg/L
- anti-histamine properties [4]: No anti-histamine properties were revealed
- ED50 [5]: ~3 mg/kg
- counteraction of stereotypic movements [6]: does not counteract the stereotypic movements of the rat
- % reduction relative to control hypertension (R) ([7]; cumulative dose 0.5 mg/kg I.V.): 5%
- % reduction relative to control hypertension (R) ([7]; cumulative dose 1 mg/kg I.V.): 3%
- % reduction relative to control hypertension (R) ([7]; cumulative dose 2 mg/kg I.V.): 4%
- % reduction relative to control hypertension (R) ([7]; cumulative dose 4 mg/kg I.V.): 21%
- % reduction relative to control hypertension (R) ([7]; cumulative dose 8 mg/kg I.V.): 40%
- % reduction relative to control hypertension (R) ([7]; cumulative dose 16 mg/kg I.V.): 68%
- % reduction relative to control hypertension (R) ([7]; cumulative dose 32 mg/kg I.V.): 84%
- hypertensive responses caused by adrenalin ([7]; anaesthetised dog): reduces the hypertensive responses
- Time of hypnosis, mice treated / Time of hypnosis, control mice ([8]; I.P., 80 mg/kg, pentobarbital 60 mg/kg intraperitoneally): 1.6
- extension of the duration of barbituric hypnosis ([8]; mouse, in vivo): does not extend the duration of barbituric hypnosis
- hypotensive response to acetylcholine or to excitation of the vagus nerve [9]: does not change the hypotensive response
- effectiveness versus Pizotifene [10]: more effective than the second reference compound
- anticonvulsive action [11]: no anticonvulsive action
- anticholinergic action [12]: no anticholinergic action
- hypertensive responses caused by small doses of nicotine ([13]; anaesthetised dog): reduces the hypertensive responses
- % reduction of orthosympathetic component (R) ([13]; cumulative dose 0.5 mg/kg I.V.): 0%
- % reduction of orthosympathetic component (R) ([13]; cumulative dose 1 mg/kg I.V.): 0%
- % reduction of orthosympathetic component (R) ([13]; cumulative dose 2 mg/kg I.V.): 0%
- % reduction of orthosympathetic component (R) ([13]; cumulative dose 4 mg/kg I.V.): 0%
- % reduction of orthosympathetic component (R) ([13]; cumulative dose 8 mg/kg I.V.): 0%
- % reduction of orthosympathetic component (R) ([13]; cumulative dose 16 mg/kg I.V.): 49%
- % reduction of orthosympathetic component (R) ([13]; cumulative dose 32 mg/kg I.V.): 79%
- hypertensive responses caused by blocking the carotid arteries ([14]; anaesthetised dog): reduces the hypertensive responses
- % reduction relative to control hypertension (R) ([14]; cumulative dose 0.5 mg/kg I.V.): 0%
- % reduction relative to control hypertension (R) ([14]; cumulative dose 1 mg/kg I.V.): 30%
- % reduction relative to control hypertension (R) ([14]; cumulative dose 2 mg/kg I.V.): 43%
- % reduction relative to control hypertension (R) ([14]; cumulative dose 4 mg/kg I.V.): 48%
- % reduction relative to control hypertension (R) ([14]; cumulative dose 8 mg/kg I.V.): 86%
- % reduction relative to control hypertension (R) ([14]; cumulative dose 16 mg/kg I.V.): 90%
- % reduction relative to control hypertension (R) ([14]; cumulative dose 32 mg/kg I.V.): 100%
- LD50 ([15]; ip, intraperitoneal (basis)): 184 mg/kg
- LD50 ([15]; po, per os (basis)): 3600 mg/kg
- LD50 ([15]; sc, subcutaneous (basis)): 204 mg/kg
- LD50 ([15]; intravenous (basis)): 44 mg/kg
- inhibition at 80 mg/kg ([16]; Mus musculus, ip, I.P., 80 mg/kg, WINTER & FLATAKER method, read-out: inhibiting effect on spontaneous motility at maximum dose administered): 26%
- inhibition at 300 mg/kg ([16]; Mus musculus, po, P.O., 300 mg/kg, WINTER & FLATAKER method, read-out: inhibiting effect on spontaneous motility at maximum dose administered): 20%
- reduction of spontaneous motility ([16]; mouse, even in high doses): only very slightly reduces the spontaneous motility of the mouse
- depressive action (central nervous system) ([16]; mouse, in vivo): very little depressive action
- analgesic action [17]: weak
- therapeutic effectiveness and tolerance versus oxetorone [18]: statistically superior to oxetorone
- inhibition at 80 mg/kg ([19]; ip, I.P., 80 mg/kg): 22%
- inhibition at 300 mg/kg ([19]; po, P.O., 300 mg/kg): 25%
- anti-histamine properties [20]: No anti-histamine properties were revealed
